Consider two compounds from PubChem BioAssay AID588733 (Vanderbilt Specialized Chemistry Center, 2011).

Active and inactive are the calls of the source. No rule for the calls is given here.

The experiment has as its target Metabotropic glutamate receptor 2 (Rattus norvegicus) (UniProt P31421). As to the kind of experiment: rat mGlu2 allosteric modulation, glutamate curve shift, thallium flux, GIRK cells (AID 588733). Conditions: glutamate CRC fold shift, at 10 µM, stronger effect = higher value.

Sequence of Metabotropic glutamate receptor 2 (Rattus norvegicus) (P31421 whole entry, looked up): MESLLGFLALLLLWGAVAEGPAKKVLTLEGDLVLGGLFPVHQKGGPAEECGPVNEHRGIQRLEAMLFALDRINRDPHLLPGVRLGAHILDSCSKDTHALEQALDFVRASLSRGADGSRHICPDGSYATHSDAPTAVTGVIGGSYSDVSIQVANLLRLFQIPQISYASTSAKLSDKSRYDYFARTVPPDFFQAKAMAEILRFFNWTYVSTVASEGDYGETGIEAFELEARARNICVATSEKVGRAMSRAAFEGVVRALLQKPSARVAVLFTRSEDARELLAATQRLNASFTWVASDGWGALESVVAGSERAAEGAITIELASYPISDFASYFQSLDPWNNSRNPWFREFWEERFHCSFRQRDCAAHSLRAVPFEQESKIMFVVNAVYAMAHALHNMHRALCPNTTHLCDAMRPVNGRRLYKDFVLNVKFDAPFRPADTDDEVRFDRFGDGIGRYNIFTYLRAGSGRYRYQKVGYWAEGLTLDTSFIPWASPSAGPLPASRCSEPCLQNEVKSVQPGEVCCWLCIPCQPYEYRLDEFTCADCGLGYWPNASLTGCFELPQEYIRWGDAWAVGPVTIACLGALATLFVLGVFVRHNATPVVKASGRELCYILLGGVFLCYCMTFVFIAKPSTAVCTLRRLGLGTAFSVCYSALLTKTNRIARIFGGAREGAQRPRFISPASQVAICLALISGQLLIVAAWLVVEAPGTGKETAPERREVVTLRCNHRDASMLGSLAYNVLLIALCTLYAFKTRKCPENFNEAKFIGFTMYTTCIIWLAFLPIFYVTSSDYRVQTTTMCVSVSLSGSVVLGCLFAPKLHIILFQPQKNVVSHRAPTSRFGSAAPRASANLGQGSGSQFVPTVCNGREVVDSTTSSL

`CC1(NC(=O)c2ccc(C#Cc3cccc(F)c3)cn2)COC1`: the fold shift was 0.92 (inactive).
In the case of `C[C@@H](NC(=O)c1ccc(C#Cc2cccc(F)c2)cn1)C(C)(C)O` it was 1.02 (inactive).
